Patent publication US11117859B1, “Pleuromutilin hippuric acid ester with antibacterial activity and a method of preparing the same” (SHAANXI UNIVERSITY OF SCIENCE AND TECHNOLOGY, priority 2021, dated 2021)

Columns and labels:
Format in all cases: cell-based
[1] = system: multi-resistant Staphylococcus aureus 171; assay: paper diffusion method drug sensitivity test, MRSA-171; conditions: for Zone of Inhibition: MRSA-171, 30 μg/tablet paper disc (6.35 mm), LB plate, 37° C., 24 h; for inhibitory effect (in words): multi-drug resistant Staphylococcus aureus 171, 30 μg/tablet
Method: (§1) The antimicrobial efficacy was determined by a paper diffusion method drug sensitivity test.
(§2) Experimental strains: multi-resistant Staphylococcus aureus 171, multi-resistant Staphylococcus aureus 575, multi-resistant Staphylococcus aureus 596. The experimental strain was identified by Huashan Hospital, Fudan University (Institute of Antibiotic of Fudan University).
(§3) Drug sensitive paper: The drug sensitive paper was a special drug sensitive paper with a diameter of 6.35 mm and a water absorption of 0.02 mL. The control drug was vancomycin (30 μg/tablet); the test drugs were pleuromutilin (30 μg/tablet), hippuric acid (30 μg/tablet) and pleuromutilin hippuric acid ester (30 μg/tablet).
(§4) Reagents: LB agar medium, LA broth medium, 0.5% DMSO solution.
(§5) The experimental strains were inoculated in non-selective medium and placed in air at 37° C. for 24 h. A single colony that grows well and inoculate it into broth medium was incubate at 35° C.±2° C. for 6 hours, and LA broth medium was used to calibrate the concentration of the bacterial solution to 0.5 Mie turbidimetric tube (1.5×10^8 CFU/mL). A bacterial suspension was obtained.
(§6) LB dry powder was weighed, sterilized at 103.4 Kpa, 121.3° C. high-pressure steam for 15 min, and then placed it in a 40° C.-50° C. water bath. A sterile empty plate (inner diameter 9 cm) was placed on the surface of the ultra-clean table water table, and […] was poured to the plate. The thickness of each plate was 3 mm to 4 mm. After the plate was cooled at room temperature, it was stored in the refrigerator at 2° C.-8° C. A sterile cotton swab was used to dip the bacterial solution and ti evenly coat the surface of the LB plate 3 times. After inoculation of the bacterial suspension, the LB plate was dried at room temperature for 3 min to 5 min. Sterile forceps were used to closely attach the antibacterial drug paper to the dish. The dish was put upside down and placed in a 37° C. incubator for 24 h. The results were observed by measuring the diameter. Taking 0.5% DMSO solution as a negative control, the antibacterial activity is expressed by the diameter of the inhibition zone. The inhibition zone ≥17 mm, sensitive; the inhibition zone of 15 mm-16 mm, intermediary; the inhibition zone ≤14 mm, drug resistance.

[2] = system: multi-resistant Staphylococcus aureus 575; assay: paper diffusion method drug sensitivity test, MRSA-575; conditions: for Zone of Inhibition: MRSA-575, 30 μg/tablet paper disc (6.35 mm), LB plate, 37° C., 24 h; for inhibitory effect (in words): multi-drug resistant Staphylococcus aureus 575, 30 μg/tablet
Method: as §1, §2, §3, §4, §5, §6

[3] = system: multi-resistant Staphylococcus aureus 596; assay: paper diffusion method drug sensitivity test, MRSA-596; conditions: for Zone of Inhibition: MRSA-596, 30 μg/tablet paper disc (6.35 mm), LB plate, 37° C., 24 h; for inhibitory effect (in words): multi-drug resistant Staphylococcus aureus 596, 30 μg/tablet
Method: as §1, §2, §3, §4, §5, §6

SMILES | Zone of Inhibition [1] | inhibitory effect (in words) [1] | Zone of Inhibition [2] | inhibitory effect (in words) [2] | Zone of Inhibition [3] | inhibitory effect (in words) [3]
C=C[C@]1(C)C[C@@H](OC(=O)CO)[C@]2(C)[C@H](C)CC[C@]3(CCC(=O)[C@H]32)[C@@H](C)[C@@H]1O [Pleuromutilin] | 0 mm | no inhibitory effect | 0 mm | no inhibitory effect | 0 mm | no inhibitory effect
O=C(O)CNC(=O)c1ccccc1 [Hippuric acid] | 0 mm | no inhibitory effect | 0 mm | no inhibitory effect | 0 mm | no inhibitory effect
C=C[C@]1(C)C[C@@H](OC(=O)COC(=O)CNC(=O)c2ccccc2)[C@]2(C)CC[C@@H](C)[C@@]3(CCC(=O)[C@@H]23)[C@@H](C)[C@@H]1O [Pleuromutilin hippuric acid ester, (3aS,4R,5S,6S,8R,9R,9aR,12R)-5-hydroxy-4,6,9,12-tetramethyl-1-oxo-6-vinyldecahydro-3a,9-propanocyclopenta[8]annulen-8-yl 2-(2-benzamidoacetoxy)acetate] | 14 mm | strong inhibitory effects | 15 mm | strong inhibitory effects | 25 mm | strong inhibitory effects
CN[C@H](CC(C)C)C(=O)N[C@H]1C(=O)N[C@@H](CC(N)=O)C(=O)N[C@H]2C(=O)N[C@H]3C(=O)N[C@H](C(=O)N[C@H](C(=O)O)c4cc(O)cc(O)c4-c4cc3ccc4O)[C@H](O)c3ccc(c(Cl)c3)Oc3cc2cc(c3O[C@@H]2O[C@H](CO)[C@@H](O)[C@H](O)[C@H]2O[C@H]2C[C@](C)(N)[C@H](O)[C@H](C)O2)Oc2ccc(cc2Cl)[C@H]1O [Vancomycin] | 15 mm | – | 17 mm | – | 23 mm | –
